Reference: patent publication US6489098B1, “Means and methods for monitoring nucleoside reverse transcriptase inhibitor antiretroviral therapy and guiding therapeutic decisions in the treatment of HIV/AIDS” (ViroLogic, Inc., priority 1998, dated 2002)
“And” between values parts separate entries of the source, which are not always exact repeats. Equal values may be shown once. “Also recorded” adds a separate entry of the source.

Experiments:
[1] = test system: patient RTV-757, RTV-844, RTV-937, RTV-964 and RTV-966 (4 or more AZT resistance mutations); assay: Phenotypic susceptibility assay, patient isolates with AZT resistance-associated mutations; format: cell-based, HIV-1
Procedure: In these experiments patient-derived segment(s) corresponding to the HIV protease and reverse transcriptase coding regions were either patient-derived segments amplified by the reverse transcription-polymerase chain reaction method (RT-PCR) using viral RNA isolated from viral particles present in the serum of HIV-infected individuals or were mutants of wild type HIV-1 made by site directed mutagenesis of a parental clone of resistance test vector DNA. Isolation of viral RNA was performed using standard procedures (e.g. RNAgents Total RNA Isolation System, Promega, Madison Wis. or RNAzol, Tel-Test, Friendswood, Tex.). The RT-PCR protocol was divided into two steps. A retroviral reverse transcriptase [e.g. Moloney MuLV reverse transcriptase (Roche Molecular Systems, Inc., Branchburg, N.J.), or avian myeloblastosis virus (AMV) reverse transcriptase, (Boehringer Mannheim, Indianapolis, Ind.)] was used to copy viral RNA into cDNA. […]
Resistance tests were carried out with resistance test vectors using two host cell types. […] The resistance test vector viral particles were then used to infect a second host cell (the target host cell) in which the expression of the indicator gene is measured. […]

[2] = test system: HIV-1 RT mutant resistance test vector M41L-A62V-T69SSA-T215Y-L210W-RTV; assay: Phenotypic susceptibility assay, site directed RTV M41L+A62V+T69SSA+L210W+T215Y; format: cell-based; details: RTV with 41 + 62 + 69 + 210 + 215; 3 replicates
Procedure: (§1) Resistance tests were carried out with resistance test vectors using two host cell types. Resistance test vector viral particles were produced by a first host cell (the resistance test vector host cell) that was prepared by transfecting a packaging host cell with the resistance test vector and the packaging expression vector. The resistance test vector viral particles were then used to infect a second host cell (the target host cell) in which the expression of the indicator gene is measured.
(§2) The resistance test vectors containing a functional luciferase gene cassette were constructed and host cells were transfected with the resistance test vector DNA. The resistant test vectors contained patient-derived reverse transcriptase and protease sequences that were either susceptible or resistant to the antiretroviral agents, such as nucleoside reverse transcriptase inhibitors, non-nucleoside reverse transcriptase inhibitors and protease inhibitors. The resistance test vector viral particles produced by transfecting the resistance test vector DNA into host cells, either in the presence or absence of protease inhibitors, were used to infect target host cells grown either in the absence of NRTI or NNRTI or In the presence of increasing concentrations of the drug. The amount of luciferase activIty produced in infected target host cells in the presence of drug was compared to the amount of luciferase produced in infected target host cells in the absence of drug. […] The IC50 values were determined by plotting percent drug inhibition vs. log 10 drug concentration.
(§3) Host cells were seeded in 10-cm-diameter dishes and were transfected several days after plating with resistance test vector plasmid DNA and the envelope expression vector. […] HIV capsid protein (p24) levels in the harvested cell culture media were determined by an EIA method as described by the manufacturer (SIAC; Frederick, Md.). […] The inhibitory effect of the drug was determined using the following equation: […]

[3] = test system: HIV with RT Thr69→Asp mutation; details: cited from earlier work
[4] = test system: HIV-1 RT mutant resistance test vector M41L-T69SSA-T215Y-L210W-RTV; assay: Phenotypic susceptibility assay, site directed RTV M41L+T69SSA+L210W+T215Y; format: cell-based; details: L210W introduced with M41L+T69SSA+T215Y
Procedure: as §1, §2, §3

[5] = test system: HIV with multiple ZDV resistance mutations; details: read-out: IC50 (high-level resistance); cited from earlier work

Cc1cn([C@H]2C=C[C@@H](CO)O2)c(=O)[nH]c1=O [d4T, stavudine]
fold reduced susceptibility ([1]; four patient viruses with 4 or more AZT resistance mutations (FIG. 6)): 3-6 fold | susceptibility compared to wild-type control RTV ([1]; patient RTV pools with multiple AZT-resistance mutations): decrease in susceptibility to d4T; also recorded: significant decreases in susceptibility to d4T

Nc1ccn([C@H]2CC[C@@H](CO)O2)c(=O)n1 [ddC, zalcitabine]
Average fold reduction in susceptibility [2]: 2.1 fold and 2.10 fold | fold reduction in sensitivity [3]: five-fold

Cc1cn([C@H]2C[C@H](N=[N+]=[N-])[C@@H](CO)O2)c(=O)[nH]c1=O [AZT, zidovudine]
effect on susceptibility (words) [4]: substantial decrease in susceptibility to AZT | IC50 [5]: > 1000 nM
